The values that follow come from ChEMBL document CHEMBL1201862, “PubChem BioAssay data set” (2004).

Experiment [1] is described as follows: inhibitors of intracellular T. cruzi replication, confirmation, NIH3T3 host cells, beta-gal luminescence (AID 2044).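 Note: intracellular parasites grown in NIH/3T3 mouse fibroblasts as host cells; luminescent beta-galactosidase reporter signal from transgenic T. cruzi replicating inside host cells; inhibitors lower the luminescence signal.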 Type of experiment: functional, cell-based.
Experiment [2] is described as follows: cytotoxicity toward NIH3T3 fibroblasts, dose response, counter-screen, cell-based, ATP luminescence, mouse fibroblasts (AID 2010).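 Note: cells exposed to compound for about 90 hours before reading.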 Type of experiment: functional.
Experiment [3] is described as follows: Shn3 3'UTR reporter inhibitors, dose response, cell-based, Clone20 osteoblasts, firefly luciferase, cherry-picked (AID 624132).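 Note: firefly luciferase luminescence from reporter carrying the Shn3 3'UTR in osteoblasts.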 The format is functional.
The target of another experiment is Melanocortin receptor 4 (Homo sapiens, UniProt P32245). The format is functional, cell-based.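 Note: Cell-based assay with luminescence read-out, confirmatory dose-response testing for agonist activity of biased ligands at MC4R; human U2OS cells with tagged receptor and beta-arrestin; potency of agonists that increase receptor coupling to beta-arrestin.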
Chain of Melanocortin receptor 4 (P32245 whole entry): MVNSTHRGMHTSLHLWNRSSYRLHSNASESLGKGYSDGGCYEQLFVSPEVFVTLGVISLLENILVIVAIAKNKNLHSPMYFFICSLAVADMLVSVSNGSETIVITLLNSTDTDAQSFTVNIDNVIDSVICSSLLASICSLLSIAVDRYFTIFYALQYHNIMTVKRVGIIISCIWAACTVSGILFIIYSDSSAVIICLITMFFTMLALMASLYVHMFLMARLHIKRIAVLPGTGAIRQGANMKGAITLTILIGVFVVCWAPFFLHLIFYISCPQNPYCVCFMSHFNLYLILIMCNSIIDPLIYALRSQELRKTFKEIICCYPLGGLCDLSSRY
Experiment [4] can be described thus: HepG2 cell cytotoxicity, dose response, cytotoxicity control for Shn3 inhibitor project, CellTiter-Glo, cherry-picked (AID 624134). Type of experiment: functional, cell-based.
Experiment [5] in a line: control 3'UTR Renilla luciferase suppression, dose response, counter-screen for Shn3 inhibitor project, cell-based, Clone20-Shn3RL, cherry-picked (AID 624133). The format is functional.
The target in experiment [6] is 26S proteasome non-ATPase regulatory subunit 14 (Homo sapiens, UniProt O00487). The experiment is described as follows: inhibition of proteasome subunit RPN11 – biochemical, fluorescence polarization, uHTS hits, confirmation (AID 602368). Type of experiment: functional.
Chain of 26S proteasome non-ATPase regulatory subunit 14 (O00487 whole entry): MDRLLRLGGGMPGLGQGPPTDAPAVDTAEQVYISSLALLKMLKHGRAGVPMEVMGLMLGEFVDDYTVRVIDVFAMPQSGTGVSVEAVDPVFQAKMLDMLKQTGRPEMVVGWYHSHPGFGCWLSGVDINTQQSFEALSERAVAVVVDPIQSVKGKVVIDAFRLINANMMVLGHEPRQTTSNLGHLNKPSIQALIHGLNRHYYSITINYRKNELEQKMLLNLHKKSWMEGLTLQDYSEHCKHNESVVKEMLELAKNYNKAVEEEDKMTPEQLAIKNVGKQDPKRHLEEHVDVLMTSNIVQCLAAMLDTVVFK
Experiment [7] has as its target 72 kDa type IV collagenase (Homo sapiens, UniProt P08253). Put plainly: Dose Response validation of uHTS RPN11 inhibitor hits using a MMP-2 Fluorescence assay. The format is functional.
A further experiment deals with Prothrombin (Bos taurus, UniProt P00735). The experiment is described as follows: thrombin inhibition, dose response, biochemical, fluorescence polarization, uHTS hits (AID 602369). Type of experiment: functional.
Experiment [8] concerns the target T1, Carboxy-terminal domain RNA polymerase II polypeptide A small phosphatase 1 (Homo sapiens, UniProt Q9GZU7).
T1 sequence (Q9GZU7 whole entry): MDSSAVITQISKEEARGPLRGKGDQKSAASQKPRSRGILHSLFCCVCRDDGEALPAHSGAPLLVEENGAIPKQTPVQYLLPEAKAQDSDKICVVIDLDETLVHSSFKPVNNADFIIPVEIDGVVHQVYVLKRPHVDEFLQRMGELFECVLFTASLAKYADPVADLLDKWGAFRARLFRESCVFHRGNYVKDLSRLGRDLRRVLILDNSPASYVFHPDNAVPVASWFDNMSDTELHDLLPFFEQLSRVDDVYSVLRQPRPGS
The experiment is described as follows: inhibitors of CTDSP1, concentration-response testing, biochemical assay, absorbance-based, actives from ultra-high-throughput screening (AID 540297). Type of experiment: functional.

The target of experiment [9] is Ras and Rab interactor 1/Tyrosine-protein kinase ABL1 (Homo sapiens, UniProt P00519+Q13671). The format is functional.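 Note: biochemical TR-FRET dose-response test measuring inhibition of binding between Rin1 and Abl proteins.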
Chain of Ras and Rab interactor 1/Tyrosine-protein kinase ABL1 (P00519 whole entry): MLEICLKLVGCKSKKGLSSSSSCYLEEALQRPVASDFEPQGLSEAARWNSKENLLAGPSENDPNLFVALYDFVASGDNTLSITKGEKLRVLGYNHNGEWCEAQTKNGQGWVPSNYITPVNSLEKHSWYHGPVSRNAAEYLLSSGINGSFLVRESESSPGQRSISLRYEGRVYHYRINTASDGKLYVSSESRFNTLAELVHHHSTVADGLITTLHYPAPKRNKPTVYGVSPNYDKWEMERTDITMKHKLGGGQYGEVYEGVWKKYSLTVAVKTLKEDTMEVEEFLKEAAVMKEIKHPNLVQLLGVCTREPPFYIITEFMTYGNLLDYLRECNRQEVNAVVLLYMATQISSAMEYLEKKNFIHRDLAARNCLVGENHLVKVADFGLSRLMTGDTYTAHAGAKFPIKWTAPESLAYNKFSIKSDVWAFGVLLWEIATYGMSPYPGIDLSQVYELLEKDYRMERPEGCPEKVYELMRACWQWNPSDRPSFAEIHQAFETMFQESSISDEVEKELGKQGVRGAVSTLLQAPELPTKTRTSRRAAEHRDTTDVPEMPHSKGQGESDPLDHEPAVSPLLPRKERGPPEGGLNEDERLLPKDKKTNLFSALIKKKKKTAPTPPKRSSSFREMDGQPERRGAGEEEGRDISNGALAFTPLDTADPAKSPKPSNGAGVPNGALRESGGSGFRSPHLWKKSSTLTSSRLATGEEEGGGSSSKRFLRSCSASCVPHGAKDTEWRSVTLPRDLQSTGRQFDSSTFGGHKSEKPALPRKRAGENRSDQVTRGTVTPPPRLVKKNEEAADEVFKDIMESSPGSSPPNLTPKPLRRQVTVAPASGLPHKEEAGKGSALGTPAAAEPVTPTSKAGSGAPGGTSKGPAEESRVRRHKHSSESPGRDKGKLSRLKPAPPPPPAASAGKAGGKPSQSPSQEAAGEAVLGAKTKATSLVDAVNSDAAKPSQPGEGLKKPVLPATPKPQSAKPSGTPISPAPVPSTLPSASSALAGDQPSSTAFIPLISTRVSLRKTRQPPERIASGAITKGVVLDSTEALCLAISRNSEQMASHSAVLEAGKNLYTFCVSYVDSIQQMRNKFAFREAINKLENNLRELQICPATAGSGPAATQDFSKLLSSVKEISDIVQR
Chain of Ras and Rab interactor 1/Tyrosine-protein kinase ABL1 (Q13671 whole entry): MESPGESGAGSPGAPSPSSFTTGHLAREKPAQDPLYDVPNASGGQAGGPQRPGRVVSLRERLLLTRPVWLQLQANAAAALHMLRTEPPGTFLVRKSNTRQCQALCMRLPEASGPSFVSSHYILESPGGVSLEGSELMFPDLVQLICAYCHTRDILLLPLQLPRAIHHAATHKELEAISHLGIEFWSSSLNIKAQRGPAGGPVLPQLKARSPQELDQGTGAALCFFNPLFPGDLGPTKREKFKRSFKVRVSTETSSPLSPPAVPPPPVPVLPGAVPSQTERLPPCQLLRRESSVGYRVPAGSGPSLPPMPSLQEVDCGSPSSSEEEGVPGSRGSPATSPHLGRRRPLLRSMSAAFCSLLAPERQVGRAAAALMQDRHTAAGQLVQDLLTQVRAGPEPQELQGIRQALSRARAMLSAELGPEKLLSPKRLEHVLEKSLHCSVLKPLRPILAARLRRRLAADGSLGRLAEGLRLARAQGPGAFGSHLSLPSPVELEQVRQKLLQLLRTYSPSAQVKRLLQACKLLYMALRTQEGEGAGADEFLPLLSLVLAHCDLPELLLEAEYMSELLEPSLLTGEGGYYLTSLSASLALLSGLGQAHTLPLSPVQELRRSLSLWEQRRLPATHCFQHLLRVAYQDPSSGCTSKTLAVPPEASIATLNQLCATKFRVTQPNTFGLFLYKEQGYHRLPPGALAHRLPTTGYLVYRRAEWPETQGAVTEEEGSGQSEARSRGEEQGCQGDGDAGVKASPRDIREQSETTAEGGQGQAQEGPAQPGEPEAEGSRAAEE
Experiment [10] has as its target T2, Sentrin-specific protease 8 (Homo sapiens, UniProt Q96LD8).
T2 sequence (Q96LD8 whole entry): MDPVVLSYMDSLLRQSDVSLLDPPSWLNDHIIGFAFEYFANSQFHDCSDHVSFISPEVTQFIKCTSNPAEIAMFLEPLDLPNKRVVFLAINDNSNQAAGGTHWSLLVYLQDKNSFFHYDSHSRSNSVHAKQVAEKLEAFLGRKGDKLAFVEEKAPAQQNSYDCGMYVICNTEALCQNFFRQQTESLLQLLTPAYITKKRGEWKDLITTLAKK
The experiment is described as follows: SENP8 protease inhibitors, SAR follow-up, biochemical, luminescence (AID 504501). Type of experiment: functional.

The next experiment has as its target T3, Caspase-3 (Homo sapiens, UniProt P42574).
T3 sequence (P42574 whole entry): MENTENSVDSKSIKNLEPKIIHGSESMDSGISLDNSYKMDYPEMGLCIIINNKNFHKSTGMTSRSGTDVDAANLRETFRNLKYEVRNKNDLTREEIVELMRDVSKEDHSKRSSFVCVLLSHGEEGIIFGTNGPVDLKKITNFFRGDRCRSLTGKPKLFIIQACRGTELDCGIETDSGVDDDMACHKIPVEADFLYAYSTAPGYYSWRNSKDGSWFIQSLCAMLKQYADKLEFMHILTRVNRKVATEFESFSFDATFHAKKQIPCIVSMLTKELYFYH
Put plainly: SAR Analysis of small molecule inhibitors of Sentrin-specific proteases (SENPs) using a Caspase-3 Selectivity assay. [Related pubchem assays (depositor defined):AID2540, AID2599, AID434973, AID489001]. The format is functional.

The target of experiment [11] is T4, Sentrin-specific protease 6 (Homo sapiens, UniProt Q9GZR1).
T4 sequence (Q9GZR1 whole entry): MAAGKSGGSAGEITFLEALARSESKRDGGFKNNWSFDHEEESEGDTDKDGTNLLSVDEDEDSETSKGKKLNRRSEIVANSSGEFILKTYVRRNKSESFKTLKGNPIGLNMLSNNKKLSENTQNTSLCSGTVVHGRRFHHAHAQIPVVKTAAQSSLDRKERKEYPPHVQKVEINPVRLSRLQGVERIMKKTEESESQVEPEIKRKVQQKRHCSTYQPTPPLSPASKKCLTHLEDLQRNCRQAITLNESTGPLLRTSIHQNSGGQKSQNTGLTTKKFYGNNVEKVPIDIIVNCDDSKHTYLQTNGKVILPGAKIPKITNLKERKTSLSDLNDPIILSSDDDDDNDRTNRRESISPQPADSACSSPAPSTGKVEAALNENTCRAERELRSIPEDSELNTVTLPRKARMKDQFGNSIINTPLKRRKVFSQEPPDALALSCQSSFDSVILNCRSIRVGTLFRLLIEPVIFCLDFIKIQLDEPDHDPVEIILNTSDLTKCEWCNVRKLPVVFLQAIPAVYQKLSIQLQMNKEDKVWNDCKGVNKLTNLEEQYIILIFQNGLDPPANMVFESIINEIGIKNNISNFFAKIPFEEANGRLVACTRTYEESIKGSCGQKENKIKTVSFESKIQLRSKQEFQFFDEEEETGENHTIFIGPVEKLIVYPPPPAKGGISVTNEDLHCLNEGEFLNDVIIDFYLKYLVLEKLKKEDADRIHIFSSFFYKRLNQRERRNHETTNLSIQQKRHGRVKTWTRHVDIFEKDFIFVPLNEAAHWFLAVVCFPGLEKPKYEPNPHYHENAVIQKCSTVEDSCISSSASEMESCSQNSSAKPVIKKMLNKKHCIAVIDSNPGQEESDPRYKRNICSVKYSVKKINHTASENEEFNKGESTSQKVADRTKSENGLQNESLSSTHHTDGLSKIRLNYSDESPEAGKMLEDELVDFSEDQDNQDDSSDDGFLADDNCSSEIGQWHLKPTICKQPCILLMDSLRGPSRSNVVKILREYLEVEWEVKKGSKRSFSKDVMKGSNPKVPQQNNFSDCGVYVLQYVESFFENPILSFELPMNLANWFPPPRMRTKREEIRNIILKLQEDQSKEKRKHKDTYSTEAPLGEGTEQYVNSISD
Put plainly: SAR Analysis of small molecule inhibitors of Sentrin-specific protease 6 (SENP6) using a Luminescent assay. [Related pubchem assays (depositor defined):AID2582, AID2599]. The format is functional.

Experiment [12] has as its target T5, Sentrin-specific protease 7 (Homo sapiens, UniProt Q9BQF6).
T5 sequence (Q9BQF6 whole entry): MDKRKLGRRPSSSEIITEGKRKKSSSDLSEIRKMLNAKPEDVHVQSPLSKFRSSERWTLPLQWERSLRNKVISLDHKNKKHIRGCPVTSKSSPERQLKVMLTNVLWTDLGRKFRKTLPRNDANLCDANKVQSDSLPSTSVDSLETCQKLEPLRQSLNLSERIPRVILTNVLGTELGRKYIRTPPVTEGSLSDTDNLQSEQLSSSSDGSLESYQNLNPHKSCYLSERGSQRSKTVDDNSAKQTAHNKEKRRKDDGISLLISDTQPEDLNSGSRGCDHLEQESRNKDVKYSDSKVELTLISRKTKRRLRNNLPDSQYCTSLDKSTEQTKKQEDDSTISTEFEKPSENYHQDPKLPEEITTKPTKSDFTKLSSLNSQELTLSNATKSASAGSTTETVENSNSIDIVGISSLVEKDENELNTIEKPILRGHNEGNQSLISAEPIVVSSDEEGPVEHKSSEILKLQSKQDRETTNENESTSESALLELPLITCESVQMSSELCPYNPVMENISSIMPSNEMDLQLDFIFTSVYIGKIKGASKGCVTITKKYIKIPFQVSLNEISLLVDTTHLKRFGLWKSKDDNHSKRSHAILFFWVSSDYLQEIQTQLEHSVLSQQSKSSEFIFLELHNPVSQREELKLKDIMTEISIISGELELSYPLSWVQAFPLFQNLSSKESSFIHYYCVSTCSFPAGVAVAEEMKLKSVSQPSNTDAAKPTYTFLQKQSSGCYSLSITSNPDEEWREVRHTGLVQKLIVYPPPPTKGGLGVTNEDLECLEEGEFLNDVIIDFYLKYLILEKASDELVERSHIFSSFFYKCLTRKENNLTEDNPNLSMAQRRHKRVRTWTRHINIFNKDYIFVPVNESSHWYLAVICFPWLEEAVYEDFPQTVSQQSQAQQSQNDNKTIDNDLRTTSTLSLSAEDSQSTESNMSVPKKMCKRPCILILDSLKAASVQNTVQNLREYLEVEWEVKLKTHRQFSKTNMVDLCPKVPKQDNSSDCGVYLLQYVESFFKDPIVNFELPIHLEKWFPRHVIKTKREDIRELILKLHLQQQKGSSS
Put plainly: SENP7 protease inhibitors, SAR follow-up, biochemical, luminescence (AID 504497). The format is functional.

Experiment [13] has as its target T6, Polyadenylate-binding protein 1 (Homo sapiens, UniProt P11940). Put plainly: PABP1 MLLE–PAM2 interaction inhibitors, dose response, miRNA deadenylation inhibitor project, biochemical, fluorescence polarization, Cy5-PAM2 peptide, secondary (AID 602260). The format is functional. The note with it: read-out: IC50_Mean.
Experiment [14] addresses T6, Polyadenylate-binding protein 1. Put plainly: PABP1 MLLE–PAM2 binding inhibitor potency, dose response, biochemical, fluorescence polarization, FITC-PAM2 peptide (AID 602259). The format is functional. The note with it: read-out: IC50_Mean.

Calls of active or inactive are those of the source. Where only a bound is given, the exact number is not on record here.

Chain of 72 kDa type IV collagenase (P08253 whole entry): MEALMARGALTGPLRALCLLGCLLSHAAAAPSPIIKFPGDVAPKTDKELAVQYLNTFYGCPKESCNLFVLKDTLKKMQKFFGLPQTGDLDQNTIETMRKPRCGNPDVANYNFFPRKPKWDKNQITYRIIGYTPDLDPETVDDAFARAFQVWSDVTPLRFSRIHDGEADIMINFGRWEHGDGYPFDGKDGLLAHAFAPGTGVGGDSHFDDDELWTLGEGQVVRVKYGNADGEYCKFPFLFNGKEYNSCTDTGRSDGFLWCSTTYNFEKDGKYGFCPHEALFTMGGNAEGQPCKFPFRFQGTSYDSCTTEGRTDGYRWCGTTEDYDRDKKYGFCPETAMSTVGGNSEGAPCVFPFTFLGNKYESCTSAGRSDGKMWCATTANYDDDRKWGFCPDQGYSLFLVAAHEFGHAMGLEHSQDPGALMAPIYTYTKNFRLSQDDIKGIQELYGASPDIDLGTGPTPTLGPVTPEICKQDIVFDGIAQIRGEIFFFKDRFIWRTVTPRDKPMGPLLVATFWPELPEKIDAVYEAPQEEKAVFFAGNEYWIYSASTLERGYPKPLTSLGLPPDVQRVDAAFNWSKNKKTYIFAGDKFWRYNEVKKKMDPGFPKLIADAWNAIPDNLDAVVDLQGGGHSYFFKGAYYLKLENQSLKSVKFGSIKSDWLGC
T6 sequence (P11940 whole entry): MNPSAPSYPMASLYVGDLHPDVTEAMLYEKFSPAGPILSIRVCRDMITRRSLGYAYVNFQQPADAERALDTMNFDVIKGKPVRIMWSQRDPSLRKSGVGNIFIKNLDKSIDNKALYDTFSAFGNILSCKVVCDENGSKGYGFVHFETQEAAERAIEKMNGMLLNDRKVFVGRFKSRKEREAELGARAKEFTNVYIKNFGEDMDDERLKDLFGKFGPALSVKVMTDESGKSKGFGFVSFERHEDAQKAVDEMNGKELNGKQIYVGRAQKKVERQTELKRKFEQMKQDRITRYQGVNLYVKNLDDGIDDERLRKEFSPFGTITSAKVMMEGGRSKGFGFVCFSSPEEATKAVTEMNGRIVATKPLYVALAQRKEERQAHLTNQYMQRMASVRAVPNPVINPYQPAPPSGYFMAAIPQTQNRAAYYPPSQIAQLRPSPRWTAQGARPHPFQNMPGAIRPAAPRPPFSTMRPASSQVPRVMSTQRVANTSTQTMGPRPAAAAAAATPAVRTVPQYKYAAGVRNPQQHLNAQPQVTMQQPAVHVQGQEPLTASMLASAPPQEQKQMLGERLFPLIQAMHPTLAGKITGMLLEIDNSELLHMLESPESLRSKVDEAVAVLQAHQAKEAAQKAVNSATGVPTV

For the molecule `COc1ccc(CNCCc2ccc(Cl)cc2)cc1OCc1ccccc1`, the EC50 in experiment [1] is < 0.1 µM (active); in [2], > 60 µM (not active); on Melanocortin receptor 4, > 9.91 µM (active); in “cells”, 0.114 µM (active). Besides, the AC50 is 5.59 µM (active) in experiment [3], > 70 µM (inactive) in experiment [4] and 11.9 µM (active) in [5].

On to `Cc1nc(SCc2nc3cc(Br)ccc3[nH]2)c2oc3ccccc3c2n1`, for which the results for the IC50 (in experiment [6]; in experiment [7]; at Prothrombin) were 50 µM (active), > 100 µM (inactive) and 40 µM (active), respectively.

With `Cc1ccc(NC(=O)CCc2nc(O)c3c4c(sc3n2)CCCC4)nc1`, the IC50 in experiment [8] was 5.1 µM (active); in [6] it was 23.1 µM (active); in experiment [7], > 100 µM (inactive); at Prothrombin it was 55 µM (active).

Regarding `O=C(Nc1ccccc1N1CCN(C(=O)c2ccc(Cl)cc2)CC1)c1cccnc1`, the IC50 in [9] is 16.4 µM (inactive).

Turning to `CC(C)(C)CC(=O)Nc1ccc(-c2nc3cc(Cl)ccc3o2)cc1`, the IC50 (in [10]; at Caspase-3; in experiment [11]; in experiment [12]) was > 99 µM (inactive) throughout.

Consider `CC(=O)Nc1ccc2nc(-c3ccccc3)oc2c1`, for which the IC50 in experiment [10] is 49.9 µM (active); at Caspase-3, 14.2 µM (active); in [11], 46.5 µM (active); in [12], 11.6 µM (active).

For `CCCCn1c2ccc(F)cc2c2nnc(SCCN3CCOCC3)nc21`, the IC50 in experiment [13] and in experiment [14] was > 66 µM (inactive) in each case.

With `CC(=O)Nc1cc2c(nc1C)nc(C)n2Cc1ccc(Br)cc1`, the IC50 in experiment [9] is 15.5 µM (inactive).
